Biological target: recombinant human PAI-1 (Homo sapiens, UniProt P05121)
Assay: PAI-1 inhibitory activity, Test Method A (tPA fluorogenic substrate, Tris buffer pH8.0, 37 C)
Format: biochemical
Conditions: Test Method A

Sequence of recombinant human PAI-1 (P05121 24-402): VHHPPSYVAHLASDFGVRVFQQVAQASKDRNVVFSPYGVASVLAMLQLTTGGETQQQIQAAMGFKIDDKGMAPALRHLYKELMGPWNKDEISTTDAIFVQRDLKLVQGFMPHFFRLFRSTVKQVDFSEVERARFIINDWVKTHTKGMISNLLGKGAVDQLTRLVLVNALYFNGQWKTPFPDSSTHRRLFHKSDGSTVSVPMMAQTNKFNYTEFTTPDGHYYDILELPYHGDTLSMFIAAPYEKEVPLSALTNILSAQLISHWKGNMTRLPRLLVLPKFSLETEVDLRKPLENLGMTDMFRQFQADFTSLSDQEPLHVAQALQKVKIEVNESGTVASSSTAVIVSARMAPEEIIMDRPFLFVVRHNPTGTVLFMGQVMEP

Row | SMILES | Inhibitory Ratio at 25 μM (%) (25 μM test compound) | Inhibitory Ratio at 25 μM (%) (test compound 25 μM)
1 | O=C(O)c1cccc(N2N=C(C(F)(F)F)C(=Cc3ccc(-c4cc(Cl)cc(Cl)c4)s3)C2=O)c1 [compound 184] |  | 43%
2 | CC(C)C1=NN(c2ccc(C=Cc3ccccn3)cc2)C(=O)C1=Cc1cc(C=Cc2ccccc2)ccc1O [compound 544, 4-(2-Hydroxy-5-styrylbenzylidene)-1-{4-[2-(pyridin-2-yl)vinyl]phenyl}-3-isopropyl-2-pyrazolin-5-one] | 41% | 
3 | O=C1C(=Cc2cc(O)c(O)cc2O)C(C(F)(F)F)=NN1c1cc(Cl)cc(Cl)c1 [compound 151] |  | >99%
4 | COCC1=NN(c2cc(Cl)cc(Cl)c2)C(=O)C1=Cc1cc(C=Cc2ccccc2)ccc1O [compound 524] | >99% | 
5 | O=C1C(=Cc2ccc(Br)o2)C(c2ccccc2)=NN1c1cccc([N+](=O)[O-])c1 [compound 199] |  | 85%
6 | CC1=NN(c2cccc(C(=O)O)c2)C(=O)C1=Cc1ccc(-c2cc(Cl)cc(Cl)c2)o1 [compound 191] |  | 59%
7 | CCOC1=NN(c2ccc([N+](=O)[O-])cc2)C(=O)C1=Cc1c(O)cccc1OC [compound 550, 4-(2-hydroxy-6-methoxybenzylidene)-1-(4-nitrophenyl)-3-ethoxy-2-pyrazolin-5-one] | 66% | 
8 | CCOC1=NN(c2ccc([N+](=O)[O-])cc2)C(=O)C1=Cc1cc(C=Cc2ccccc2)ccc1OC [compound 537] | 66% | 
9 | CC1=NN(c2ccc(Cl)c(C(=O)O)c2)C(=O)C1=Cc1ccc(-c2cccc(Cl)c2C)o1 [compound 190] |  | 81%
10 | O=C1C(=Cc2ccc(-c3cc(Cl)cc(Cl)c3)o2)C(c2ccccc2)=NN1c1cccc([N+](=O)[O-])c1 [compound 167, 4-{[5-(3,5-Dichlorophenyl)furan-2-yl]methylene}-1-(3-nitrophenyl)-3-phenyl-2-pyrazolin-5-one] |  | 50%
11 | O=C1C(=Cc2cc(Br)ccc2O)C(c2ccc(O)cc2)=NN1c1cc(Cl)cc(Cl)c1 [compound 510] | 86% | 
12 | COCC1=NN(c2cc(Cl)cc(Cl)c2)C(=O)C1=Cc1ccccc1O [compound 523] | >99% | 
13 | O=C(Nc1ccc(O)c(O)c1)c1cc(C=C2SC(=O)N(Cc3cc(C(F)(F)F)ccc3C(F)(F)F)C2=O)ccc1O [compound 374] | >99% | 
14 | O=C1C(=Cc2cc(Cl)ccc2O)SC(=S)N1c1ccccc1 [compound 65] |  | 21%
15 | O=C1C(=Cc2cc(O)c(O)c(O)c2)C(c2ccccc2)=NN1c1ccc(Cl)c(Cl)c1 [compound 146] |  | >99%
16 | COC(=O)c1cccc(N2N=C(C(F)(F)F)C(=Cc3ccc(-c4cc(C(F)(F)F)cc(C(F)(F)F)c4)o3)C2=O)c1 [compound 177, 4-({5-[3,5-Bis(trifluoromethyl)phenyl]furan-2-yl}methylene)-1-(3-methoxycarbonylphenyl)-3-trifluoromethyl-2-pyrazolin-5-one] |  | 86%
17 | O=C1C(=Cc2ccc(O)c(O)c2O)C(C(F)(F)F)=NN1c1cc(Cl)cc(Cl)c1 [compound 150] |  | >99%
18 | COc1cc(Br)cc(C=C2C(=O)N(c3cc(Cl)cc(Cl)c3)N=C2C(C)C)c1O [compound 528] | >99% | 
19 | CC(C)C1=NN(c2cc(Cl)ccc2Cl)C(=O)C1=Cc1cc(O)c(O)cc1O [compound 502, 4-(2,4,5-Trihydroxybenzylidene)-1-(2,5-dichlorophenyl)-3-isopropyl-2-pyrazolin-5-one] | 66% | 
20 | O=C(O)c1cccc(N2N=C(c3ccccc3)C(=Cc3ccc(-c4cc(C(F)(F)F)cc(C(F)(F)F)c4)o3)C2=O)c1 [compound 217] |  | >99%
21 | COc1cccc(N2N=C(C(C)C)C(=Cc3ccc(O)c(O)c3)C2=O)c1 [compound 126] |  | 44%

Now from value to molecule:

Row | Inhibitory Ratio at 25 μM (%) (25 μM test compound) | Inhibitory Ratio at 25 μM (%) (test compound 25 μM) | SMILES
22 | >99% |  | O=C1SC(=Cc2ccc(O)c(O)c2)C(=O)N1Cc1cnc(Cl)c(Cl)c1 [compound 304, 5-(3,4-Dihydroxybenzylidene)-3-[(5,6-dichloropyridin-3-yl)-methyl]thiazolidine-2,4-dione]
23 |  | >99% | O=C1SC(=Cc2ccc(O)c(O)c2)C(=O)N1Cc1cccc(Cl)c1Cl [compound 19]
24 | 87% |  | O=C(Nc1cccc([N+](=O)[O-])c1)c1cc(C=C2SC(=O)N(Cc3ccc(Cl)c(Cl)c3)C2=O)ccc1O [compound 424]
25 | 85% |  | O=C(O)c1cccc(NC(=O)c2cc(C=C3SC(=O)N(Cc4ccc(Cl)c(Cl)c4)C3=O)ccc2O)c1 [compound 420]
26 | 95% |  | O=C(Nc1cc(C(F)(F)F)ccc1Oc1ccc(O)cc1)c1cc(C=C2SC(=O)N(Cc3ccc(Cl)c(Cl)c3)C2=O)ccc1O [compound 422]
27 | >99% |  | O=C1SC(=Cc2ccc([O-])c([O-])c2)C(=O)N1Cc1ccc(Cl)cc1Cl.[Na+].[Na+] [compound 339]
28 |  | >99% | O=C1SC(=Cc2ccc(O)c(O)c2)C(=O)N1Cc1ccc(Oc2ccccc2)cc1 [compound 60, 5-(3,4-Dihydroxybenzylidene)-3-(4-phenoxybenzyl)thiazolidine-2,4-dione]
29 | 86% |  | O=C(Nc1ccc(O)c(O)c1)c1cc(C=C2SC(=O)N(Cc3ccc([N+](=O)[O-])cc3)C2=O)ccc1O [compound 378]
30 | 66% |  | O=C1SC(=Cc2ccc(F)c(O)c2)C(=O)N1Cc1ccc(Cl)c(Cl)c1 [compound 326]
31 |  | 68% | O=C1SC(=Cc2ccc(O)c(O)c2O)C(=O)N1Cc1ccc(Cl)c(Cl)c1 [compound 29]
32 | >99% |  | COc1ccc(NC(=O)c2cc(C=C3SC(=O)N(Cc4ccc(Cl)cc4Cl)C3=O)ccc2O)cc1OC [compound 397, 5-[4-Hydroxy-3-(3,4-dimethoxyphenylcarbamoyl)benzylidene]-3-(2,4-dichlorobenzyl)thiazolidine-2,4-dione]
33 |  | >99% | O=C1SC(=Cc2ccc([N+](=O)[O-])c(O)c2)C(=O)N1Cc1ccc(Cl)c(Cl)c1 [compound 87, 5-(3-hydroxy-4-nitrobenzylidene)-3-(3,4-dichlorobenzyl)-thiazolidine-2,4-dione]
34 |  | >99% | Cc1cc(C)cc(CN2C(=O)SC(=Cc3cccc(O)c3O)C2=O)c1 [compound 26, 5-(2,3-Dihydroxybenzylidene)-3-(3,5-dimethylbenzyl)thiazolidine-2,4-dione]
35 |  | >99% | CCOC1=NN(c2ccc([N+](=O)[O-])cc2)C(=O)C1=Cc1ccc(O)c(O)c1 [compound 116]
36 | 98% |  | O=C1SC(=Cc2ccc(Oc3ccccc3)cc2)C(=O)N1Cc1cc(O)c(O)c(O)c1 [compound 308, 5-(4-Phenoxybenzylidene)-3-(3,4,5-trihydroxybenzyl)thiazolidine-2,4-dione]
37 | 56% |  | CCOC(=O)Oc1cc(C=C2SC(=O)N(Cc3ccc(Cl)c(Cl)c3)C2=O)cc(OC(=O)OCC)c1OC(=O)OCC [compound 340]
38 |  | 50% | O=C1SC(=Cc2cc(O)c(O)c(O)c2)C(=O)N1Cc1cccc([N+](=O)[O-])c1 [compound 52]
39 |  | >99% | O=C1SC(=Cc2ccc(O)c(O)c2)C(=O)N1Cc1cc(C(F)(F)F)cc(C(F)(F)F)c1 [compound 4]

Source: patent US20070276011A1, “Plasminogen Activator Inhibitor-1 Inhibitor” (priority 2003, published 2007)
